Results: patent publication US6703421B1, “Methods of using phenylmethylbenzoquinone and hydroquinone compounds for treatment of myocarditis, dilated cardiomyopathy and heart failure” (Daiichi Suntory Pharma Co., Ltd., priority 1999, dated 2004)
Like-named read-outs stand apart in the source and are kept apart here.

Tested on: NF-κB
Assay: NF-κB luciferase reporter assay in A549/NF-κBLuc cells
Assay type: cell-based, human
Conditions: A549/NF-κBLuc, luciferase activity
Protocol: Using lipofectamine (Lifetech Oriental K. K., Tokyo) according to the conventional method, human lung cancer cell line A549 cells (ATCC catalog no. CCL185), which are known to express hiNOS by cytokine stimulation, were co-transfected with pNFκB-Luc, which are plasmid controlled by a NF-κB binding consensus sequence, and pSV2neo (Clontech, U.S.A.), and then A549/NF-κBLuc, the cell that has stably introduced pNFκB-Luc, was selected by adding G418 sulfate (1 mg/ml, Lifetech Oriental K. K.) to the culture medium.
The luciferase activity was measured using the Luciferase Assay System (Promega, U.S.A.).

[1] = Homo sapiens, IL-1β (1 ng/ml) for 4 hours, read-out: IC50 (μM) IL-1 stimulation

Row | Compound | IC50 [1] [µM] | further results
1 | 2-[5-Methylthieno[2,3-d]pyrimidine-4-yl]aminoindan-5-carboxylic Acid Morpholinamide [Prod. Ex. 221] | – | IC50 (IL-1β (1 ng/ml) for 4 hours, read-out: IC50 (μM) IL-1 stimulation): 0.051 µM; IC50 (TNF-α (500 ng/ml) for 4 hours, read-out: IC50 (μM) TNF stimulation): 0.089 µM
2 | COC1=C(OC)C(=O)C(Cc2ccc(CCC(=O)N3CCOCC3)cc2)=C(C)C1=O [Prod. Ex. 3, N-[3-[4-(5,6-Dimethoxy-3-methyl-1,4-benzoquinon-2-ylmethyl)phenyl]propionyl]morpholine] | 29 | –
3 | COC1=C(OC)C(=O)C(Cc2ccc(CCC(=O)NC(C)C)cc2)=C(C)C1=O [Prod. Ex. 9, N-[3-[4-(5,6-Dimethoxy-3-methyl-1,4-benzoquinon-2-ylmethyl)phenyl]propionyl]isopropylamine] | 3 | IC50 (Homo sapiens, TNF-α (500 ng/ml) for 4 hours, read-out: IC50 (μM) TNF stimulation): 4 µM
4 | COC1=C(OC)C(=O)C(Cc2ccc(C(=O)NC(C)C)cc2)=C(C)C1=O [Prod. Ex. 23, N-[4-(5,6-Dimethoxy-3-methyl-1,4-benzoquinon-2-ylmethyl)benzoyl]isopropylamine] | 42 | –
5 | COC1=C(OC)C(=O)C(Cc2ccc(CCCC(=O)N3CCOCC3)cc2)=C(C)C1=O [Prod. Ex. 27, N-[4-[4-(5,6-Dimethoxy-3-methyl-1,4-benzoquinon-2-ylmethyl)phenyl]butanoyl]morpholine] | 15 | –
6 | COC1=C(OC)C(=O)C(Cc2ccc(CCCC(=O)N3CCSCC3)cc2)=C(C)C1=O [Prod. Ex. 28, N-[4-[4-(5,6-Dimethoxy-3-methyl-1,4-benzoquinon-2-ylmethyl)phenyl]butanoyl]thiomorpholine] | 14 | –
7 | COC1=C(OC)C(=O)C(Cc2ccc(CCCC(=O)N3CCCCC3)cc2)=C(C)C1=O [Prod. Ex. 29, N-[4-[4-(5,6-Dimethoxy-3-methyl-1,4-benzoquinon-2-ylmethyl)phenyl]butanoyl]piperidine] | 13 | –
8 | COC1=C(OC)C(=O)C(Cc2ccc(CCCC(=O)NC(C)C)cc2)=C(C)C1=O [Prod. Ex. 30, N-[4-[4-(5,6-Dimethoxy-3-methyl-1,4-benzoquinon-2-ylmethyl)phenyl]butanoyl]isopropylamine] | 14 | –
9 | COC1=C(OC)C(=O)C(Cc2cccc(CCC(=O)N3CCCCC3)c2)=C(C)C1=O [Prod. Ex. 32, N-[3-[3-(5,6-Dimethoxy-3-methyl-1,4-benzoquinon-2-ylmethyl)phenyl]propionyl]piperidine] | 24 | –
10 | COC1=C(OC)C(=O)C(Cc2cccc(CCC(=O)N3CCSCC3)c2)=C(C)C1=O [Prod. Ex. 33, N-[3-[3-(5,6-Dimethoxy-3-methyl-1,4-benzoquinon-2-ylmethyl)phenyl]propionyl]thiomorpholine] | 28 | –
11 | COC1=C(OC)C(=O)C(Cc2cccc(CCC(=O)N3CCOCC3)c2)=C(C)C1=O [Prod. Ex. 34, N-[3-[3-(5,6-Dimethoxy-3-methyl-1,4-benzoquinon-2-ylmethyl)phenyl]propionyl]morpholine] | 29 | –
12 | COC1=C(OC)C(=O)C(Cc2cccc(CCC(=O)NC(C)C)c2)=C(C)C1=O [Prod. Ex. 35, N-[3-[3-(5,6-Dimethoxy-3-methyl-1,4-benzoquinon-2-ylmethyl)phenyl]propionyl]isopropylamine] | 8 | –
13 | COC1=C(OC)C(=O)C(Cc2cccc(/C=C/C(=O)N3CCCCC3)c2)=C(C)C1=O [Prod. Ex. 37, N-[3-[3-(5,6-Dimethoxy-3-methyl-1,4-benzoquinon-2-ylmethyl)phenyl]acryloyl]piperidine] | 49 | –
14 | COC1=C(OC)C(=O)C(Cc2cccc(/C=C/C(=O)NC(C)C)c2)=C(C)C1=O [Prod. Ex. 39, N-[3-[3-(5,6-Dimethoxy-3-methyl-1,4-benzoquinon-2-ylmethyl)phenyl]acryloyl]isopropylamine] | 39 | –
15 | COC1=C(OC)C(=O)C(Cc2cccc(C(=O)NC(C)C)c2)=C(C)C1=O [Prod. Ex. 42, N-[3-(5,6-Dimethoxy-3-methyl-1,4-benzoquinon-2-ylmethyl)benzoyl]isopropylamine] | 22 | –
16 | COC1=C(OC)C(=O)C(Cc2cccc(C(=O)N3CCCCC3)c2)=C(C)C1=O [Prod. Ex. 43, N-[3-(5,6-Dimethoxy-3-methyl-1,4-benzoquinon-2-ylmethyl)benzoyl]piperidine] | 21 | –
17 | COC1=C(OC)C(=O)C(Cc2cccc(C(=O)N3CCSCC3)c2)=C(C)C1=O [Prod. Ex. 45, N-[3-(5,6-Dimethoxy-3-methyl-1,4-benzoquinon-2-ylmethyl)benzoyl]thiomorpholine] | 17 | –
18 | CC1=C(C)C(=O)C(Cc2ccc(CCC(=O)NC(C)C)cc2)=C(C)C1=O [Prod. Ex. 46] | 17 | –
19 | CC1=C(C)C(=O)C(Cc2ccc(CCC(=O)N3CCCCC3)cc2)=C(C)C1=O [Prod. Ex. 47, N-[3-[4-(3,5,6-Trimethyl-1,4-benzoquinon-2-ylmethyl)phenyl]propionyl]piperidine] | 21 | –

Row | Compound | IC50 [1] [µM] | further results
20 | CC1=C(C)C(=O)C(Cc2ccc(CCC(=O)N3CCOCC3)cc2)=C(C)C1=O [Prod. Ex. 48, N-[3-[4-(3,5,6-Trimethyl-1,4-benzoquinon-2-ylmethyl)phenyl]propionyl]morpholine] | 18 | –
21 | CC1=C(C)C(=O)C(Cc2cccc(CCC(=O)NC(C)C)c2)=C(C)C1=O [Prod. Ex. 49, N-[3-[3-(3,5,6-Trimethyl-1,4-benzoquinon-2-ylmethyl)phenyl]propionyl]isopropylamine] | 28 | –
22 | CC1=C(C)C(=O)C(Cc2cccc(CCC(=O)N3CCCCC3)c2)=C(C)C1=O [Prod. Ex. 50, N-[3-[3-(3,5,6-Trimethyl-1,4-benzoquinon-2-ylmethyl)phenyl]propionyl]piperidine] | 16 | –
23 | CC1=C(C)C(=O)C(Cc2cccc(CCC(=O)N3CCOCC3)c2)=C(C)C1=O [Prod. Ex. 51, N-[3-[3-(3,5,6-Trimethyl-1,4-benzoquinon-2-ylmethyl)phenyl]propionyl]morpholine] | 18 | –
24 | COC1=C(OC)C(=O)C(Cc2ccc(CC(=O)N3CCOCC3)cc2)=C(C)C1=O [Prod. Ex. 53, N-[4-(5,6-Dimethoxy-3-methyl-1,4-benzoquinon-2-ylmethyl)phenylacetyl]morpholine] | 8 | –
25 | COC1=C(OC)C(=O)C(Cc2ccc(CC(=O)N3CCCCC3)cc2)=C(C)C1=O [Prod. Ex. 54, N-[4-(5,6-Dimethoxy-3-methyl-1,4-benzoquinon-2-ylmethyl)phenylacetyl]piperidine] | 5 | –
26 | COC1=C(OC)C(=O)C(Cc2ccc(CC(=O)N3CCSCC3)cc2)=C(C)C1=O [Prod. Ex. 55, N-[4-(5,6-Dimethoxy-3-methyl-1,4-benzoquinon-2-ylmethyl)phenylacetyl]thiomorpholine] | 7 | –
27 | COC1=C(OC)C(=O)C(Cc2ccc(CC(=O)NC(C)C)cc2)=C(C)C1=O [Prod. Ex. 56, N-[4-(5,6-Dimethoxy-3-methyl-1,4-benzoquinon-2-ylmethyl)phenylacetyl]isopropylamine] | 5 | –
28 | COC1=C(OC)C(=O)C(Cc2cccc(CC(=O)N3CCCCC3)c2)=C(C)C1=O [Prod. Ex. 58, N-[3-(5,6-Dimethoxy-3-methyl-1,4-benzoquinon-2-ylmethyl)phenylacetyl]piperidine] | 13 | –
29 | COC1=C(OC)C(=O)C(Cc2cccc(CC(=O)N3CCSCC3)c2)=C(C)C1=O [Prod. Ex. 59, N-[3-(5,6-Dimethoxy-3-methyl-1,4-benzoquinon-2-ylmethyl)phenylacetyl]thiomorpholine] | 12 | –
30 | COC1=C(OC)C(=O)C(Cc2cccc(CC(=O)N3CCOCC3)c2)=C(C)C1=O [Prod. Ex. 60, N-[3-(5,6-Dimethoxy-3-methyl-1,4-benzoquinon-2-ylmethyl)phenylacetyl]morpholine] | 18 | –
31 | COC1=C(OC)C(=O)C(Cc2cccc(CC(=O)NC(C)C)c2)=C(C)C1=O [Prod. Ex. 61, N-[3-(5,6-Dimethoxy-3-methyl-1,4-benzoquinon-2-ylmethyl)phenylacetyl]isopropylamine] | 24 | –
32 | COC1=C(OC)C(=O)C(Cc2cccc(CCCC(=O)N3CCCCC3)c2)=C(C)C1=O [Prod. Ex. 63, N-[4-[3-(5,6-Dimethoxy-3-methyl-1,4-benzoquinon-2-ylmethyl)phenyl]butanoyl]piperidine] | 2 | –
33 | COC1=C(OC)C(=O)C(Cc2cccc(CCCC(=O)N3CCSCC3)c2)=C(C)C1=O [Prod. Ex. 64, N-[4-[3-(5,6-Dimethoxy-3-methyl-1,4-benzoquinon-2-ylmethyl)phenyl]butanoyl]thiomorpholine] | 5 | –
34 | COC1=C(OC)C(=O)C(Cc2cccc(CCCC(=O)N3CCOCC3)c2)=C(C)C1=O [Prod. Ex. 65, N-[4-[3-(5,6-Dimethoxy-3-methyl-1,4-benzoquinon-2-ylmethyl)phenyl]butanoyl]morpholine] | 12 | –
35 | COC1=C(OC)C(=O)C(Cc2cccc(CCCC(=O)NC(C)C)c2)=C(C)C1=O [Prod. Ex. 66, N-[4-[3-(5,6-Dimethoxy-3-methyl-1,4-benzoquinon-2-ylmethyl)phenyl]butanoyl]isopropylamine] | 3 | –
36 | COC1=C(OC)C(=O)C(Cc2ccccc2CCC(=O)N2CCCCC2)=C(C)C1=O [Prod. Ex. 70, N-[3-[2-(5,6-Dimethoxy-3-methyl-1,4-benzoquinon-2-ylmethyl)phenyl]propionyl]piperidine] | 44 | –
37 | COC1=C(OC)C(=O)C(Cc2ccccc2CCC(=O)N2CCOCC2)=C(C)C1=O [Prod. Ex. 71, N-[3-[2-(5,6-Dimethoxy-3-methyl-1,4-benzoquinon-2-ylmethyl)phenyl]propionyl]morpholine] | 56 | –
38 | COC1=C(OC)C(=O)C(Cc2ccccc2CCC(=O)N2CCSCC2)=C(C)C1=O [Prod. Ex. 72, N-[3-[2-(5,6-dimethoxy-3-methyl-1,4-benzoquinon-2-ylmethyl)phenyl]propionyl]thiomorpholine] | 42 | –
